# Reference: patent US8999358B2, “Aqueous insecticidal compositions and the use thereof for protecting lignocellulose-containing materials” (BASF Aktiengesellschaft, priority 2005, dated 2015)
# Tested on: wood-destroying soil-dwelling termites (Reticulitermes santonensis)
# Assay: Laboratory termite resistance test of treated wood specimens (AWPA E1-97) after leaching according to DIN EN 84
# Format: in vivo
# Conditions: Test termite R. santonensis; Pinus spp. (Southern Yellow Pine) specimens 25x25x6 mm^3; AWPA E1-97, 4 weeks; α-cypermethrin concentration in wood giving score 10 to 9
# Procedure: The aqueous active ingredient composition according to the invention of Example 3 was diluted with water to three different active ingredient concentrations. For comparison purposes, the anionic dispersion D6, which is not in accordance with the invention, was studied, and α-cypermethrin was dissolved in acetone, and the solution was diluted with further acetone to give the active ingredient concentrations in question.
# To determine the limits of the efficacy of the composition according to the invention with regard to wood-destroying soil-dwelling termites (Reticulitermes santonensis), wood specimens of Pinus spp. with the dimensions 25×25×6 mm^3 (Southern Yellow Pine) were tested in accordance with the American test standard AWPA E1-97 (see, in this context, “Standard method for laboratory evaluation to determine resistance to subterranean termites”, American Wood-Preservers' Association, 2001) under constrained experimental conditions after leaching according to DIN EN 84: 1997-01 (see, in this context, “accelerated aging of treated timber before biological tests”, European standardization committee).
# The destruction of the timber caused by attack by the termites was registered after 4 weeks of testing by visually scoring the timber specimens as specified in AWPA E1-97. In addition, the mortality rate among the termites was estimated. […]
smiles,measurement,value
"CC1(C)C(C=C(Cl)Cl)C1C(=O)OC(C#N)c1cccc(Oc2ccccc2)c1 (stereo not drawn) [Solution of α-cypermethrin, α-cypermethrin]",Limits of the efficacy after leaching (EN 84),29-40 g/m^3
